One test concerns the target T1, human Gcg receptor (Homo sapiens, UniProt P47871).
T1 construct: expressed in transfected cells; crude membranes
Nature of the test: [125I]-Glucagon binding (SPA), human Gcg receptor. Conditions: read-out: hGLcgR Ki, nM (SEM, n). The gist of the method: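 Cell pellets were lysed in hypotonic Tris buffer, pH 7.5, homogenized, and spun at low then high speed to give crude membranes. Ki was derived from the fitted IC50.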

A further test addresses T2, human GIP receptor (Homo sapiens, UniProt P48546).
T2 construct: expressed in transfected cells; crude membranes
T2 sequence (P48546 22-466): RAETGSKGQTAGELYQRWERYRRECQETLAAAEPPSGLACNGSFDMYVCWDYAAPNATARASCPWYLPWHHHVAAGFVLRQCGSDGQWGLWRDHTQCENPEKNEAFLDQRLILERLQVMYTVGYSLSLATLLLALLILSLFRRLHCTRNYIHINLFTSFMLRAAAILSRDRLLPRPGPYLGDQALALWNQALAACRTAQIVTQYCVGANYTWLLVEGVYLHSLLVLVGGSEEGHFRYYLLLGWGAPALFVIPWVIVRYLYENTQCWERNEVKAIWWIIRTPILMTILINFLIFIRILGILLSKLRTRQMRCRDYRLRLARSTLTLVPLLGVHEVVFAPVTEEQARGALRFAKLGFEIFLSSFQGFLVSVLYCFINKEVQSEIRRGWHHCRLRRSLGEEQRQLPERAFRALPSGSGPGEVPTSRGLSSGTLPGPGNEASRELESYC
Briefly: [125I]-GIP binding (SPA), human GIP receptor. Conditions: read-out: hGIPR Ki, nM (SEM, n).

Test [1] deals with human GLP-1 receptor (GLP-1R) (Homo sapiens, UniProt P43220). Nature of the test: cAMP pharmacological functional assay in presence of casein, hGLP-1R. The note with it: HEK293 cells expressing hGLP-1R, 0.1% Casein, geometric mean; read-out: hGLP1R cAMP Rel EC50 nM (SEM, n). The test is classed as cell-based.
Chain of human GLP-1 receptor (GLP-1R) (P43220 24-463): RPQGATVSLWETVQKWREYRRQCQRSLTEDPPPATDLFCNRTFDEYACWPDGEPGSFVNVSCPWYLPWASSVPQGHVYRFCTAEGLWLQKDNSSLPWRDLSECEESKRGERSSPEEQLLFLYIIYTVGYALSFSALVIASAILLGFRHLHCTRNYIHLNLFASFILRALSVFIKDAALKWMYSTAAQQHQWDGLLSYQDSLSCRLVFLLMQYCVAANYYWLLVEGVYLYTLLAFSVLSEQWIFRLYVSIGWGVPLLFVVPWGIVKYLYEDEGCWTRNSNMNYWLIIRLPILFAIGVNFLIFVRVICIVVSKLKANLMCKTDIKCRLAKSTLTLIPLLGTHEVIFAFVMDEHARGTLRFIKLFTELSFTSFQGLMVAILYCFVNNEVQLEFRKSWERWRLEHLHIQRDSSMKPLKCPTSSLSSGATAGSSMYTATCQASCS
Test [2] concerns the target T3, gastric inhibitory peptide receptor (GIPR) (Homo sapiens, UniProt P48546).
T3 sequence (P48546 22-466): T2 sequence (P48546 22-466)
Nature of the test: cAMP pharmacological functional assay in presence of casein, hGIPR. The test is classed as cell-based. Conditions: HEK293 cells expressing hGIPR, 0.1% Casein, geometric mean; read-out: hGIPR cAMP Rel EC50 nM (SEM, n).

In a further test the target is human GLP-1R (Homo sapiens, UniProt P43220). Briefly: [125I]-GLP-1 binding (SPA), human GLP-1 receptor. Details: expressed in transfected cells; crude membranes. Conditions: read-out: hGLP1R Ki, (nM) (SEM, n). The gist of the method: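 Crude-membrane binding assay; one membrane prep included 1 mM MgCl2 and 25 units/ml DNAse I during lysis. Assay buffer at pH 7.4 contains 0.1% (w/v) bacitracin and 0.003% (w/v) TWEEN-20. Ki is reported as geometric mean.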
Chain of human GLP-1R (P43220 24-463): as above

Numbered stars: 1 amine (or outer) side, 2 acyl side, 3 side chain; on linkers, the order of the positions; unused ones are H or OH. Square brackets hold non-standard residues; d marks the D form. Side chains are listed from the residue outwards. Peptide text beside a SMILES is read from it. * marks the point of attachment. C20 diacid = O=C(O)CCCCCCCCCCCCCCCCCCC(=O)*; C18 diacid = O=C(O)CCCCCCCCCCCCCCCCC(=O)*; αMePhe(2-F) = C[C@](N)(Cc1ccccc1F)C(=O)O; γGlu = O=C(O)[C@H](CCC(=O)[*:2])N[*:1]; αMeL = CC(C)C[C@](C)(N)C(=O)O; AEEA = NCCOCCOCC(=O)O; Aib = CC(C)(N)C(=O)O

T1 sequence (P47871 26-477): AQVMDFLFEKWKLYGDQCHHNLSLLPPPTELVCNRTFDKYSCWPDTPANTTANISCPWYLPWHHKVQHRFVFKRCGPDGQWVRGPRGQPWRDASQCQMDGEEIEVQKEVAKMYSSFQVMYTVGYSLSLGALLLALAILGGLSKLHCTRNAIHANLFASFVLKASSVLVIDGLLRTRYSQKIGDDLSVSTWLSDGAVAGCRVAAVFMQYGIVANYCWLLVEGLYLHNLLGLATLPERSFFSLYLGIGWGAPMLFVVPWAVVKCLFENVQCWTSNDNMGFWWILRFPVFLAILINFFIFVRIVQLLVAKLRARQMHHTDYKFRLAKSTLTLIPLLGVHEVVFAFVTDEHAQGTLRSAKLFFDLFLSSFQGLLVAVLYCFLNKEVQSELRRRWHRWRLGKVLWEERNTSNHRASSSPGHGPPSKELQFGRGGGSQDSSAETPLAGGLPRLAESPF

Turning to `CC[C@H](C)[C@H](NC(=O)[C@H](CC(C)C)NC(=O)[C@H](Cc1ccc(O)cc1)NC(=O)[C@H](CCC(=O)O)NC(=O)[C@@H](NC(=O)[C@H](Cc1ccccc1)NC(=O)[C@H](C)NC(=O)C(C)(C)NC(=O)[C@H](CCC(N)=O)NC(=O)[C@H](C)NC(=O)[C@H](CCCCNC(=O)COCCOCCNC(=O)COCCOCCNC(=O)CC[C@H](NC(=O)CCCCCCCCCCCCCCCCCCC(=O)O)C(=O)O)NC(=O)[C@H](CO)NC(=O)[C@H](CC(=O)O)NC(=O)[C@H](CC(C)C)NC(=O)[C@](C)(CC(C)C)NC(=O)[C@@H](NC(=O)[C@H](CO)NC(=O)[C@H](Cc1ccc(O)cc1)NC(=O)[C@H](CC(=O)O)NC(=O)[C@H](CO)NC(=O)[C@@H](NC(=O)[C@H](Cc1ccccc1)NC(=O)[C@@H](NC(=O)CNC(=O)[C@H](CCC(=O)O)NC(=O)C(C)(C)NC(=O)[C@@H](N)Cc1ccc(O)cc1)[C@@H](C)O)[C@@H](C)O)[C@@H](C)CC)[C@@H](C)CC)C(=O)N[C@@H](CCC(=O)O)C(=O)NCC(=O)NCC(=O)N1CCC[C@H]1C(=O)N[C@@H](CO)C(=O)N[C@@H](CO)C(=O)NCC(=O)N[C@@H](C)C(=O)N1CCC[C@H]1C(=O)N1CCC[C@H]1C(=O)N1CCC[C@H]1C(=O)N[C@@H](CO)C(N)=O` [Example 52] (H-Y[Aib]EGTFTSDYSI[αMeL]LDSK([AEEA-AEEA-γGlu-C20 diacid])AQ[Aib]AFIEYLIEGGPSSGAPPPS-NH2), the inhibitory constant (Ki) is more than 1100 nM at human Gcg receptor, 0.0342 nM on human GIP receptor and 5.81 nM at human GLP-1R. The EC50 is 0.132 nM in test [1] and 0.0997 nM in test [2].
On the same counts, the results for `CC[C@H](C)[C@H](NC(=O)[C@H](CC(C)C)NC(=O)[C@H](Cc1ccc(O)cc1)NC(=O)[C@H](CCC(=O)O)NC(=O)[C@@H](NC(=O)[C@H](Cc1ccccc1)NC(=O)[C@H](C)NC(=O)C(C)(C)NC(=O)[C@H](CCC(N)=O)NC(=O)[C@H](C)NC(=O)[C@H](CCCCNC(=O)COCCOCCNC(=O)COCCOCCNC(=O)CC[C@H](NC(=O)CCCCCCCCCCCCCCCCCCC(=O)O)C(=O)O)NC(=O)[C@H](CCCCN)NC(=O)[C@H](CC(=O)O)NC(=O)[C@H](CC(C)C)NC(=O)[C@H](CC(C)C)NC(=O)[C@@H](NC(=O)[C@H](CO)NC(=O)[C@H](Cc1ccc(O)cc1)NC(=O)[C@H](CC(=O)O)NC(=O)[C@H](CO)NC(=O)[C@@H](NC(=O)[C@H](Cc1ccccc1)NC(=O)[C@@H](NC(=O)CNC(=O)[C@H](CCC(=O)O)NC(=O)C(C)(C)NC(=O)[C@@H](N)Cc1ccc(O)cc1)[C@@H](C)O)[C@@H](C)O)[C@@H](C)CC)[C@@H](C)CC)C(=O)N[C@@H](CCC(=O)O)C(=O)NCC(=O)NCC(=O)N1CCC[C@H]1C(=O)N[C@@H](CO)C(=O)N[C@@H](CO)C(=O)NCC(N)=O` [Example 50] (H-Y[Aib]EGTFTSDYSILLDKK([AEEA-AEEA-γGlu-C20 diacid])AQ[Aib]AFIEYLIEGGPSSG-NH2) are 220 nM, 0.0568 nM, 4.71 nM, 0.0961 nM and 0.0794 nM.
In the case of `CC[C@H](C)[C@H](NC(=O)[C@H](CC(C)C)NC(=O)[C@H](Cc1ccc(O)cc1)NC(=O)[C@H](CCC(=O)O)NC(=O)[C@@H](NC(=O)[C@H](Cc1ccccc1)NC(=O)[C@H](CCC(=O)O)NC(=O)C(C)(C)NC(=O)[C@H](CCC(N)=O)NC(=O)[C@H](C)NC(=O)[C@H](CCCCNC(=O)COCCOCCNC(=O)COCCOCCNC(=O)CC[C@H](NC(=O)CCCCCCCCCCCCCCCCC(=O)O)C(=O)O)NC(=O)[C@H](CCCCN)NC(=O)[C@H](CC(=O)O)NC(=O)[C@H](CC(C)C)NC(=O)[C@H](CC(C)C)NC(=O)[C@@H](NC(=O)[C@H](CO)NC(=O)[C@H](Cc1ccc(O)cc1)NC(=O)[C@H](CC(=O)O)NC(=O)[C@H](CO)NC(=O)[C@@H](NC(=O)[C@](C)(Cc1ccccc1F)NC(=O)[C@@H](NC(=O)CNC(=O)[C@H](CCC(=O)O)NC(=O)C(C)(C)NC(=O)[C@@H](N)Cc1ccc(O)cc1)[C@@H](C)O)[C@@H](C)O)[C@@H](C)CC)[C@@H](C)CC)C(=O)N[C@@H](CCC(=O)O)C(=O)NCC(=O)NCC(=O)N1CCC[C@H]1C(=O)N[C@@H](CO)C(=O)N[C@@H](CO)C(=O)NCC(N)=O` [Example 312] (H-Y[Aib]EGT[αMePhe(2-F)]TSDYSILLDKK([AEEA-AEEA-γGlu-C18 diacid])AQ[Aib]EFIEYLIEGGPSSG-NH2), the Ki was 106 nM on human Gcg receptor, 0.0348 nM on human GIP receptor and 1.63 nM at human GLP-1R. Moreover, the values for the EC50 in test [1] and in test [2] were 0.0262 nM and 0.0207 nM, respectively.
Regarding `CC[C@H](C)[C@H](NC(=O)[C@H](CC(C)C)NC(=O)[C@H](Cc1ccc(O)cc1)NC(=O)[C@H](CCC(=O)O)NC(=O)[C@@H](NC(=O)[C@H](Cc1ccccc1)NC(=O)[C@H](C)NC(=O)C(C)(C)NC(=O)[C@H](CCC(N)=O)NC(=O)[C@H](CCCCNC(=O)COCCOCCNC(=O)COCCOCCNC(=O)CC[C@H](NC(=O)CCCCCCCCCCCCCCCCCCC(=O)O)C(=O)O)NC(=O)[C@@H](NC(=O)[C@H](CCCCN)NC(=O)[C@H](CC(=O)O)NC(=O)[C@H](CC(C)C)NC(=O)[C@H](CC(C)C)NC(=O)[C@@H](NC(=O)[C@H](CO)NC(=O)[C@H](Cc1ccc(O)cc1)NC(=O)[C@H](CC(=O)O)NC(=O)[C@H](CO)NC(=O)[C@@H](NC(=O)[C@H](Cc1ccccc1)NC(=O)[C@@H](NC(=O)CNC(=O)[C@H](CCC(=O)O)NC(=O)C(C)(C)NC(=O)[C@@H](N)Cc1ccc(O)cc1)[C@@H](C)O)[C@@H](C)O)[C@@H](C)CC)[C@@H](C)CC)[C@@H](C)CC)C(=O)N[C@@H](CCC(=O)O)C(=O)NCC(=O)NCC(=O)N1CCC[C@H]1C(=O)N[C@@H](CO)C(=O)N[C@@H](CO)C(=O)NCC(=O)N[C@@H](C)C(=O)N1CCC[C@H]1C(=O)N1CCC[C@H]1C(=O)N1CCC[C@H]1C(=O)N[C@@H](CO)C(N)=O` [Example 30] (H-Y[Aib]EGTFTSDYSILLDKIK([AEEA-AEEA-γGlu-C20 diacid])Q[Aib]AFIEYLIEGGPSSGAPPPS-NH2), the inhibition constant (Ki) came to 123 nM on human Gcg receptor, 0.151 nM on human GIP receptor and 6.2 nM at human GLP-1R. Further, the EC50 in test [1] was 1.84 nM; in test [2] it was 0.114 nM.
On the same counts, the results for `CC[C@H](C)[C@H](NC(=O)[C@H](CC(C)C)NC(=O)[C@H](Cc1ccc(O)cc1)NC(=O)[C@H](CCC(=O)O)NC(=O)[C@@H](NC(=O)[C@H](Cc1ccccc1)NC(=O)[C@H](C)NC(=O)C(C)(C)NC(=O)[C@H](CCC(N)=O)NC(=O)[C@H](C)NC(=O)[C@H](CCCCNC(=O)COCCOCCNC(=O)COCCOCCNC(=O)CC[C@H](NC(=O)CCCCCCCCCCCCCCCCCCC(=O)O)C(=O)O)NC(=O)[C@H](CCCCN)NC(=O)[C@H](CC(=O)O)NC(=O)[C@H](CC(C)C)NC(=O)[C@H](CC(C)C)NC(=O)[C@@H](NC(=O)[C@H](CO)NC(=O)[C@H](Cc1ccc(O)cc1)NC(=O)[C@H](CC(=O)O)NC(=O)[C@H](CO)NC(=O)[C@@H](NC(=O)[C@H](Cc1ccccc1)NC(=O)[C@@H](NC(=O)CNC(=O)[C@H](CC(N)=O)NC(=O)C(C)(C)NC(=O)[C@@H](N)Cc1c[nH]cn1)[C@@H](C)O)[C@@H](C)O)[C@@H](C)CC)[C@@H](C)CC)C(=O)N[C@@H](CCC(=O)O)C(=O)NCC(=O)NCC(=O)N1CCC[C@H]1C(=O)N[C@@H](CO)C(=O)N[C@@H](CO)C(=O)NCC(=O)N[C@@H](C)C(=O)N1CCC[C@H]1C(=O)N1CCC[C@H]1C(=O)N1CCC[C@H]1C(=O)N[C@@H](CO)C(N)=O` [Example 135] (H-H[Aib]NGTFTSDYSILLDKK([AEEA-AEEA-γGlu-C20 diacid])AQ[Aib]AFIEYLIEGGPSSGAPPPS-NH2) are 454 nM, 0.161 nM, 3.01 nM, 0.131 nM and 0.373 nM.

The values are drawn from patent US12252524B2, “GIP/GLP1 co-agonist compounds” (Eli Lilly and Company, priority 2018, dated 2025).
